The text below walks through data of patent US6660741B2, “Asymmetric synthesis of (S,S,R)-(-)-actinonin and its analogs and uses therefor” (Sloan-Kettering Institute for Cancer Research, priority 2001, dated 2003).

Like-named read-outs stand apart in the source and are kept apart here.

Type in all cases: cell-based
Experiment [1] has as its system HL60 (acute myeloid leukemia, CD13 positive) cells. In words: Inhibition of tritiated thymidine incorporation, 5 day, HL60. The conditions noted are these: HL60, 5 days. The protocol:
(§1) Actinonin was purchased from Sigma (St. Louis, Mo.). Biotinylated-Actinonin and all analogs were synthesized. Actinonin stock solution was 5 mg/ml in 10% ethanol. Biotinylated-actinonin and all other analogs were diluted in 10% DMSO to give stock solutions in the range of 1-20 mg/ml.
(§2) Daudi (B lineage Burkitt's lymphoma, CD13 negative) and HL60 (acute myeloid leukemia, CD13 positive) cells were maintained in culture using RPMI 1640 supplemented with 10% heat-inactivated FBS (Omega Scientific, Inc., Tarzana, Calif.) and 1% L-glutamine (Gibco/Invitrogen, Carlsbad, Calif.) at 37° C. in a humidified atmosphere of 5% CO2. Cell viability was higher than 90%, and cells were free of mycoplasma contamination.
(§3) An aliquot of 200 ul of cells (10,000 cells/well) was washed and incubated at 37° C. in 96-well plates in the presence or absence of actinonin/analogs. Serial dilutions were made in complete media. After 5 days of incubation, 50 ul of 10 uCi/mL tritiated thymidine (PerkinElmer, Boston, Mass.) was added to each well and allowed to incorporate for 5 hours. Plates were frozen at −80° C. overnight and cells were harvested onto filtermats (Wallac, Finland) using a semi-automatic harvester (Skatron, Sterling, Va.). Filtermats were counted in a 1205 Betaplate™ liquid scintillation counter (Wallac, Finland). The reference numbers refer to those analogs disclosed in Example 6. Compounds 35, 42, 48, 52, 53, and 56 are effective at inhibiting cell growth.

In the next experiment the test system is Daudi and HL60 cells. The experiment is described as follows: Thymidine incorporation, summary statement on cell growth (Daudi and HL60). The conditions noted are these: summary of Tables 4 and 5. The protocol: as §1, §2, §3
The test system of experiment [2] is Daudi (B lineage Burkitt's lymphoma, CD13 negative) cells. In words: Inhibition of tritiated thymidine incorporation, 5 day, Daudi. The conditions noted are these: 5 days. The protocol: as §1, §2, §3
Where [3] appears, read: Homo sapiens, HL-60, 120 h, read-out: HL60 IC50 (uM), 5 day thymidine incorporation.
Where [4] appears, read: Homo sapiens, HL-60, 120 h, read-out: HL60 IC50 (ug/mL), 5 day thymidine incorporation.
Setting [5] is: Homo sapiens, 120 h, read-out: Daudi IC50 (uM), 5 day thymidine incorporation.
[6] abbreviates: Homo sapiens, 120 h, read-out: Daudi IC50 (ug/mL), 5 day thymidine incorporation.

Consider `CCCCC[C@H](CC(=O)NO)C(=O)N[C@H](C(=O)N1CCC[C@H]1CN)C(C)C` [Compound 53, N4-hydroxy-N1-(1-(2-methylamine-pyrrolidine-1-carbonyl)-2-methyl-propyl)-2-pentyl-succinamide], for which the IC50 in experiment [1] (setting [3]) came to 26 µM; in experiment [1] (setting [4]) it was 10 µg/mL; in experiment [2] (setting [5]), 18.2 µM; in experiment [2] (setting [6]), 7 µg/mL. Moreover, in the experiment on Daudi and HL60 cells, the inhibiting cell growth entry is given as “effective”.

As for `CCCCC[C@H](CC(=O)NCc1ccc(OC)cc1OC)C(=O)N[C@@H](Cc1ccccc1)C(=O)N1CCC[C@H]1CO` [Compound 59], the IC50 in experiment [1] (setting [3]) is greater than 176 µM; in experiment [1] (setting [4]), greater than 100 µg/mL.

With `CCCCC[C@H](CC(=O)NO)C(=O)N[C@@H](Cc1ccccc1)C(=O)N1CCC[C@H]1CO` [Compound 42, N1-(1-benzyl-2-(2-hydroxymethyl-pyrrolidin-1-yl)-2-oxo-ethyl)-N4-hydroxy-2-pentyl-succinamide], the IC50 in experiment [1] (setting [3]) was 15.8 µM; in experiment [1] (setting [4]), 7.1 µg/mL; in experiment [2] (setting [5]), 12.9 µM; in experiment [2] (setting [6]) it was 5.8 µg/mL. For the same compound, in the experiment with Daudi and HL60 cells, the inhibiting cell growth entry is “effective”.

On to `CCCCC[C@H](CC(=O)NO)C(=O)N[C@@H](CC(C)C)C(=O)N1CCC[C@H]1CO` [Compound 35, N4-hydroxy-N1-(1-(2-hydroxymethyl-pyrrolidine-1-carbonyl)-3-methyl-butyl)-2-pentyl-succinamide], for which the IC50 in experiment [1] (setting [3]) was 17.7 µM; in experiment [1] (setting [4]), 7.1 µg/mL; in experiment [2] (setting [5]), 14.1 µM; in experiment [2] (setting [6]) it was 5.7 µg/mL. For the same compound, in the experiment on Daudi and HL60 cells, the inhibiting cell growth result was “effective”.

Consider `CCCCC[C@H](CC(=O)N(CC)CC)C(=O)N[C@@H](Cc1ccccc1)C(=O)N1CCC[C@H]1CO` [Compound 57], for which the IC50 was greater than 211 µM in experiment [1] (setting [3]) and greater than 100 µg/mL in experiment [1] (setting [4]).

Regarding `CCCCC[C@H](CC(N)=O)C(=O)N[C@H](C(=O)N1CCC[C@H]1C)C(C)C` (stereo in doubt) [Compound 51, N1-(1-(2-methyl-pyrrolidine-1-carbonyl)-2-methyl-propyl)-2-pentyl-succinamide], the IC50 amounted to 19.5 µM in experiment [1] (setting [3]), 6.9 µg/mL in experiment [1] (setting [4]), 18.7 µM in experiment [2] (setting [5]) and 6.6 µg/mL in experiment [2] (setting [6]).

In the case of `CCCCC[C@H](CC(N)=O)C(=O)N[C@@H](CC(C)C)C(=O)N1CCC[C@H]1CO` [Compound 49, N1-(1-(2-hydroxymethyl-pyrrolidine-1-carbonyl)-3-methyl-butyl)-2-pentyl-succinamide], the IC50 in experiment [1] (setting [3]) was greater than 130 µM; in experiment [1] (setting [4]), greater than 50 µg/mL; in experiment [2] (setting [5]), greater than 130 µM; in experiment [2] (setting [6]) it was greater than 50 µg/mL.

Consider `CCCCC[C@H](CC(=O)N(C)OC)C(=O)N[C@@H](Cc1ccccc1)C(=O)N1CCC[C@H]1CO` [Compound 65], for which the IC50 in experiment [1] (setting [3]) is greater than 217 µM; in experiment [1] (setting [4]), greater than 100 µg/mL.

Take `CCCCC[C@H](CC(=O)NCc1ccc([N+](=O)[O-])cc1)C(=O)N[C@@H](Cc1ccccc1)C(=O)N1CCC[C@H]1CO` [Compound 61]: the figures for the IC50 in experiment [1] (setting [3]) and in experiment [1] (setting [4]) were greater than 181 µM and greater than 100 µg/mL, respectively.

In the case of `CCCCC[C@H](CC(=O)NO)C(=O)N[C@@H](Cc1ccccc1)C(=O)N1CCC[C@H]1C` [Compound 52], the IC50 amounted to 12.1 µM in experiment [1] (setting [3]), 5.2 µg/mL in experiment [1] (setting [4]), 2.7 µM in experiment [2] (setting [5]) and 1.2 µg/mL in experiment [2] (setting [6]). Besides, in the experiment on Daudi and HL60 cells, the inhibiting cell growth result is “effective”.

As to `O=C(O)CNC(=O)C(CS)Cc1ccccc1` (racemic) [DL-Thiorphan, reference compound], the “HL60 IC50 (ug/mL), 5 day thymidine incorporation” value in experiment [1] was greater than 100 µg/mL. The IC50 in experiment [1] (read-out: HL60 IC50 (uM), 5 day thymidine incorporation) is greater than 395 µM; in experiment [2] (read-out: Daudi IC50 (uM), 5 day thymidine incorporation), greater than 395 µM. For the same compound, the “Daudi IC50 (ug/mL), 5 day thymidine incorporation” value in experiment [2] is greater than 100 µg/mL.

On to `CCCCC[C@H](CC(=O)NO)C(=O)N[C@H](C(=O)N1CCC[C@H]1C(=O)O)C(C)C` [Compound 56, N4-hydroxy-N1-(1-(2-carboxy-pyrrolidine-1-carbonyl)-2-methyl-propyl)-2-pentyl-succinamide], for which the IC50 in experiment [1] (setting [3]) is greater than 251 µM; in experiment [1] (setting [4]), greater than 100 µg/mL; in experiment [2] (setting [5]), greater than 251 µM; in experiment [2] (setting [6]), greater than 100 µg/mL. For the same compound, the inhibiting cell growth entry in the experiment with Daudi and HL60 cells is listed as “effective”.

Regarding `CCCCC[C@H](CC(=O)NOC)C(=O)N[C@@H](Cc1ccccc1)C(=O)N1CCC[C@H]1CO` [Compound 63], the IC50 is greater than 224 µM in experiment [1] (setting [3]) and greater than 100 µg/mL in experiment [1] (setting [4]).

For the compound `CCCCC[C@H](CC(=O)N1CCCCC1)C(=O)N[C@@H](Cc1ccccc1)C(=O)N1CCC[C@H]1CO` [Compound 64], the IC50 in experiment [1] (setting [3]) was greater than 206 µM; in experiment [1] (setting [4]), greater than 100 µg/mL.

Take `CCCCC[C@H](CC(=O)NN(C)C)C(=O)N[C@@H](Cc1ccccc1)C(=O)N1CCC[C@H]1CO` [Compound 60, 2-(N′,N′-dimethyl-hydrazinocarbonylmethyl)-heptanoic acid [1-benzyl-2-(2-hydroxymethyl-pyrrolidin-1-yl)-2-oxo-ethyl]-amide]: the results for the IC50 in experiment [1] (setting [3]) and in experiment [1] (setting [4]) were 196 µM and 90 µg/mL, respectively.

As to `CCCCC[C@H](CC(=O)O)C(=O)N[C@@H](Cc1ccccc1)C(=O)N1CCC[C@H]1CO` [Compound 54, 3-[1-(2-hydroxymethyl-pyrrolidin-1-yl)-2-benzylcarbamoyl]-octanoic acid], the values for the IC50 in experiment [1] (setting [3]) and in experiment [1] (setting [4]) were greater than 239 µM and greater than 100 µg/mL, respectively.

`CCCC[C@@H](C=O)NC(=O)[C@H](CC(C)C)NC(=O)OCc1ccccc1` [Calpeptin, reference compound]: the IC50 in experiment [1] (setting [3]) was determined as 138 µM; in experiment [1] (setting [4]), 50 µg/mL; in experiment [2] (setting [5]), 16.6 µM; in experiment [2] (setting [6]), 6 µg/mL.

For `CC(C)[C@H](NC(=O)[C@H](C)CC(=O)NO)C(=O)N1CCC[C@H]1CO` [Compound 48, N4-hydroxy-N1-(1-(2-hydroxymethyl-pyrrolidine-1-carbonyl)-2-methyl-propyl)-2-methyl-succinamide], the IC50 was determined as 29.5 µM in experiment [1] (setting [3]), 10.5 µg/mL in experiment [1] (setting [4]), 22.4 µM in experiment [2] (setting [5]) and 8 µg/mL in experiment [2] (setting [6]). Besides, in the experiment on Daudi and HL60 cells, the inhibiting cell growth entry is “effective”.

In the case of `CCCCC[C@H](CC(=O)N1CCN(C)CC1)C(=O)N[C@@H](Cc1ccccc1)C(=O)N1CCC[C@H]1CO` [Compound 62, 2-[2-(4-methyl-piperazin-1-yl)-2-oxo-ethyl]-heptanoic acid [1-benzyl-2-(2-hydroxymethyl-pyrrolidin-1-yl)-2-oxo-ethyl]-amide], the figures for the IC50 in experiment [1] (setting [3]) and in experiment [1] (setting [4]) were greater than 200 µM and greater than 100 µg/mL, respectively.

Regarding `CCCCC[C@H](CC(=O)NCC)C(=O)N[C@@H](Cc1ccccc1)C(=O)N1CCC[C@H]1CO` [Compound 58], the figures for the IC50 in experiment [1] (setting [3]) and in experiment [1] (setting [4]) were greater than 225 µM and greater than 100 µg/mL, respectively.

As for `CCCCC[C@H](CC(=O)NO)C(=O)N[C@H](C(=O)N1CCC[C@H]1C(=O)OC)C(C)C` [Compound 55], the IC50 in experiment [1] (setting [3]) was determined as 6.7 µM; in experiment [1] (setting [4]), 2.77 µg/mL; in experiment [2] (setting [5]) it was 0.97 µM; in experiment [2] (setting [6]), 0.402 µg/mL.
